In patent publication US5225436A, “Aryl substituted naphthalene derivatives” (Schering Corporation, priority 1991, dated 1993):
Read-outs that look alike come from different tables or passages of the source.

Tests used:
Assay type in all cases: cell-based
[1] = test system: SRS-A / leukotriene release from antigen-challenged, sensitized guinea pig lung; experiment: Inhibition of SRS-A (leukotriene) release from antigen-challenged, sensitized guinea pig lung; set-up: inhibition: dose or concentration left out as unconfirmed; conditions: Cavia porcellus; for inhibition: Dose 30 μm (μM)
Excerpt: The anti-allergy method of this invention is identified by tests which measure a compound's inhibition of leukotriene release in sensitized guinea pigs. Sensitized guinea pigs are killed by a blow to the head and the lungs removed and cleaned of visible connective tissue, trachea and large blood vessels. The lungs from individual animals are sliced into fragments approximately 1 mm in thickness using a McIlwain tissue chopper and then washed with oxygenated Tyrode's buffer. Weighed aliquots (approximately 400 mg wet weight) of lung are transferred into vials containing 2 ml of fresh Tyrode's solution (containing 10 mM cysteine) and incubated in the presence or absence of test compound for 12 min at 37° C. The tissues are then challenged with 20 μg ovalbumin/ml (final concentration) and incubated for 15 min. To measure leukotriene release, an aliquot of supernatant fluid is extracted with 4 volumes of 100% ethanol. After removal of the precipitated protein, the clear fluid is dried under a stream of N2 gas. The leukotriene content is measured by a radioimmunoassay using [^3 H]LTC4 and antiserum obtained from New England Nuclear. The cross-reactivity of the antiserum for LTD4 is 55%. Percent inhibition of lekotriene release is calculated by comparing for each lung the release in the presence of the test compound to that in the absence of test compound. Representative compounds of the invention at a relative dose of 50 μM of tissue are found to inhibit leukotriene release in the test procedure as indicated below in Table 1: […]

5-lipoxygenase [2] = target: T1, 5-lipoxygenase (Homo sapiens, UniProt P09917); experiment: 5-Lipoxygenase assay with human neutrophils; conditions: 5 min, Human PMN, dose 15 μm (μM)
T1 construct: Human polymorphonuclear leukocytes (neutrophils) were obtained from normal healthy volunteers; endogenous in cells; host or cells: human blood neutrophils from healthy volunteers
T1 sequence (P09917 1-674): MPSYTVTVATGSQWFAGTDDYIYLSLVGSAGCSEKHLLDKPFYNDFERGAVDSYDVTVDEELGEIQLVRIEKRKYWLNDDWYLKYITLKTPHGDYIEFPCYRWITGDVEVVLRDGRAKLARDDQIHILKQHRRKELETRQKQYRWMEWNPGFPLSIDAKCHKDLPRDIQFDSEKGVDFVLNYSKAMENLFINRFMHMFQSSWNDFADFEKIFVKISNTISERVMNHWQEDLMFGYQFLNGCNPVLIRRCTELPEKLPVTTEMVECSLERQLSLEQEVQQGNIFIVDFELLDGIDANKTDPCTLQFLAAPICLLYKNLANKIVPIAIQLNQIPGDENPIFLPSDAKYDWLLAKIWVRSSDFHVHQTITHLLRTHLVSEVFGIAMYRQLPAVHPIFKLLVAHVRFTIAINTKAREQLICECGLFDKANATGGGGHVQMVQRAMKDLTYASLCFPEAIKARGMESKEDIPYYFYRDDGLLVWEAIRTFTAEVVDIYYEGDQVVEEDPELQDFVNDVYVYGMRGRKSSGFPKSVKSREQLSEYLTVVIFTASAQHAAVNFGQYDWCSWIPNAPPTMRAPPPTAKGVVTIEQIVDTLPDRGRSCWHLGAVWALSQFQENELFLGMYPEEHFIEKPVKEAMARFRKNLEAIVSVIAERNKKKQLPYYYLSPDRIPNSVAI
Procedure: Human polymorphonuclear leukocytes (neutrophils) were obtained from normal healthy volunteers by venipuncture and collected with heparin anticoagulant. Neutrophils were isolated by Dextran/Ficol sedimentation as described (Billah et al., J. Biol. Chem. 260, 6899-6906 (1985)). In brief, 30 ml of blood was mixed with 5 ml of dextran (Sigma) solution and kept at 37° C. for 30 min. The upper white cell-rich layer was removed and 10 ml was layered on 9 ml of Ficol-Paque solution (Pharmacia) and centrifuged at 280 xg for 10 min. at 5° C. The supernatant was removed and the neutrophil pellet was resuspended in HEPES buffer containing 25 mM N-2-hydroxyethylpiperazine-N^1 -2-ethanesulfonic acid HEPES, 125 mM NaCl, 2.5 mM KCl, 0.7 mM MgCl2, […] 10 mM glucose at pH 7.4. The red cells in the suspension were lysed by hypotonic shock. The neutrophils were washed by centrifugation in HEPES buffer two times and finally resuspended at a concentration of 20×10^6 cells/ml in the presence of 1 mM CaCl2.
Neutrophils (0.2 ml of suspension) were preincubated with dimethylsulfoxide (DMSO) vehicle with or without test compound (1 ul) for 4 minutes then incubated for 5 minutes with [^14 C] arachidonic acid (Amersham, 59 Ci/mole) at a 9 uM final concentration, and the calcium ionophore A23187 (Calbiochem) at a 1 uM final concentration. These stimulants were added in 10 ul of water:ethanol (9:1). The reaction was stopped by addition of methanol (0.4 ml), and cellular debris was removed by centrifugation. Aliquots (100 ul) of the incubations were run on a Waters two pump HPLC system fitted with a DuPont Zorbax ODS, 5u, […] Reliance Cartridge column and C18 "Guard Pak". The column was initially eluted at 2 ml/min with 80% of the mixture water:methanol:acetic acid (46:54:0.08) containing 1 mM EDTA adjusted to pH 6.0 with ammonium hydroxide (Pump A) and 20% methanol (Pump B). At 10 minutes, a linear gradient to reach 100% methanol (Pump B) at 27 minutes was established. Between 27 and 28 minutes, methanol was exchanged for the initial eluting solvent and by 35 minutes the column had been reequilibrated for the next sample. The effluent was analyzed by a continuous flow radioactivity monitor (model ROMONA-D) interfaced with a Hewlett Packard Lab Automation System for quantitation of radioactive products. These were predominantly leukotriene B4 (LTB4) which eluted at 7 minutes, and 5-hydroxyeicosatetraenoic acid (5-HETE) which eluted at 20 minutes.

5-lipoxygenase [3] = target: T2, 5-lipoxygenase (Mus musculus, UniProt P48999); experiment: 5-Lipoxygenase assay (murine mast cell clone MC-9); conditions: MC9, 5 min, MC-9 cell
T2 construct: The IL-3-dependent murine mast cell clone, MC-9, was used to test the effects; endogenous in cells; host or cells: MC-9 (IL-3-dependent murine mast cell clone)
T2 sequence (P48999 1-674): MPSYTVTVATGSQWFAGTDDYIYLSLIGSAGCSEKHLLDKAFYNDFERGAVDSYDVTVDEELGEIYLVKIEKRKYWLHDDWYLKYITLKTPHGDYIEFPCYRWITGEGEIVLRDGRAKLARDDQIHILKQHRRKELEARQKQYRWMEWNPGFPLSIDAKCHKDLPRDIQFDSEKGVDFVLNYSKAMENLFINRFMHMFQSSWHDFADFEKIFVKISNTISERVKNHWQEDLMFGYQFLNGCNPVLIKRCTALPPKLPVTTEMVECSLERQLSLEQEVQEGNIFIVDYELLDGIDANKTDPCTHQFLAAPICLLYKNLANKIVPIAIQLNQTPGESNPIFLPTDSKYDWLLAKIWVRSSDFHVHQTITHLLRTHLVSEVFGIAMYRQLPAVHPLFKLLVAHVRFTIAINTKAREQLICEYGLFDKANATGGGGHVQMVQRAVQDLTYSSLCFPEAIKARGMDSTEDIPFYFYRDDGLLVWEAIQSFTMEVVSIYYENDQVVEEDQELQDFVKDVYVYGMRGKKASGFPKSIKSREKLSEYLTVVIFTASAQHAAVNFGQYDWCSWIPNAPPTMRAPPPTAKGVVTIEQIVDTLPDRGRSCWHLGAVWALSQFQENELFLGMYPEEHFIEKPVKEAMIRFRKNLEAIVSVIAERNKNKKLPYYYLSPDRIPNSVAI
Procedure: The IL-3-dependent murine mast cell clone, MC-9, was used to test the effects of representative compounds of the invention on lipoxygenase activity. The MC-9 cell line was grown in suspension culture (0.4 to 1.2×10^6 cells/ml) in RPMI 1640 medium (Gibco) with 10% fetal bovine serum (Hyclone) and 2-5% conconavalin-A conditioned supernatant (Musch et. al., (1985) Prostagandins 29, 405-4307. Cells were harvested, washed twice by centrifugation, and resuspended in a Ca^++ -free HEPES buffer (25 mM HEPES, 125 mM NaCl, 2.5 mM KCl 0.7 mM MgCl2, 0.5 mM EGTA and 10 mM glucose at pH 7.4).
MC-9 cells (0.39 ml at 7.5×10^6 cells/ml) were preincubated with dimethylsulfoxide (DMSO) vehicle with or without test compound (1 ul) for 4 minutes then incubated for 5 minutes with [^14 C] arachidonic acid (Amersham, 59 Ci/mole) at a 9 uM final concentration, and A23187 (Calbiochem) at a 1 uM final concentration was added in 10 ul of water:ethanol (9:1). The reaction was stopped by addition of methanol (0.4 ml), and cellular debris was removed by centrifugation. Aliquots (250 ul) of the incubations were run on a Waters two pump HPLC system fitted with a Waters C18, 10 u 8×100 mm u-Bondapak radial compression column and C18 "Guard Pak". The column was initially eluted at 3 ml/min with water:methanol:acetic acid (67:33:0.08) containing 1 mM EDTA adjusted to pH 6.0 with ammonium hydroxide (Pump A). At 4 minutes, a linear gradient to reach 100% methanol (Pump B) at 9 minutes was established. Between 13 and 14 minutes, methanol was exchanged for the initial eluting solvent and by 19 minutes the column had been reequilibrated for the next sample. The effluent was analyzed by a continuous flow radioactivity monitor (model ROMONA-D) interfaced with a Hewlett Packard Lab Automation System for quantitation of radioactive products. These were predominantly leukotriene C4 (LTC4) which eluted at 6 minutes, and 5-hydroxyeicosatetraenoic acid (5-HETE) which eluted at 11 minutes (Musch et. al., supra).

Row | SMILES | inhibition at 15 µM (5-lipoxygenase [2]; read-out: % Inhibition 5-HETE) [%] | inhibition at 15 µM (5-lipoxygenase [2]; read-out: % Inhibition LTB) [%] | inhibition [1] [%] | further results
1 | CON=C1CC(c2ccc(OC)c(OC)c2)C(C)(C)c2cc(OC)ccc21 (stereo not drawn) | 74 | – | 0 | –
2 | COc1cc(OC)c2c(c1)C(C)(C)C(c1ccc(OC)c(OC)c1)CC2O (stereo not drawn) | – | – | – | inhibition at 5 µM (5-lipoxygenase [3]; read-out: % Inhibition 5-HETE): 5%; inhibition at 5 µM (5-lipoxygenase [3]; read-out: % Inhibition LTC4): 32%
3 | COc1cc(OC)c2c(c1)C(C)(C)C(c1ccccc1)CC2=O (stereo not drawn) | 0 | 0 | – | inhibition at 10 µM [1]: 6%
4 | COc1ccc2c(c1)C(C)(C)C(c1ccc(OC)c(OC)c1)CC2=O (stereo not drawn) | 42 | – | 28 | –
5 | COc1cc(OC)c2c(c1)C(C)(C)C(c1ccc(OC)c(OC)c1)C(C=O)C2=O (stereo not drawn) | 16 | 0 | 19 | –
6 | COc1cc(OC)c2c(c1)C(C)(C)C(c1ccc(OC)c(OC)c1)CC2(C)O (stereo not drawn) | – | – | – | inhibition at 5 µM (5-lipoxygenase [3]; read-out: % Inhibition 5-HETE): 0%; inhibition at 5 µM (5-lipoxygenase [3]; read-out: % Inhibition LTC4): 8%
7 | CC1(C)c2cc(O)cc(O)c2CCC1c1ccc(O)c(O)c1 (stereo not drawn) | – | – | – | inhibition at 10 µM [1]: 16%; inhibition at 5 µM (5-lipoxygenase [3]; read-out: % Inhibition 5-HETE): 55%; inhibition at 5 µM (5-lipoxygenase [3]; read-out: % Inhibition LTC4): 52%
8 | COc1cc(OC)c2c(c1)C(C)(C)C(c1ccc(OC)c(OC)c1)CC2 (stereo not drawn) | – | – | – | inhibition at 50 µM [1]: 5%; inhibition at 5 µM (5-lipoxygenase [3]; read-out: % Inhibition 5-HETE): 35%; inhibition at 5 µM (5-lipoxygenase [3]; read-out: % Inhibition LTC4): 53%
9 | CC1(C)c2cc(O)cc(O)c2C(=O)CC1c1ccc(O)c(O)c1 (stereo not drawn) [drawing 79 [R3/R4=O; E,G,P,L=OH; J=H; db no]] | – | – | – | inhibition at 50 µM [1]: 67%; inhibition at 2 µM (5-lipoxygenase [3]; dose 2 μm, read-out: % Inhibition 5-HETE): 0%
10 | COc1ccc(C2CC(=O)c3c(cc(OC)c(OC)c3OC)C2(C)C)cc1OC (stereo not drawn) [3-(3,4-dimethoxyphenyl)-3,4-dihydro-6,7,8-trimethoxy-4,4-dimethyl-1(2H)naphthalenone] | 0 | 0 | – | inhibition at 10 µM [1]: 1%
11 | CC(=O)Oc1cc(OC(C)=O)c2c(c1)C(C)(C)C(c1ccc(OC(C)=O)c(OC(C)=O)c1)CC2=O (stereo not drawn) | – | – | – | inhibition at 50 µM [1]: 48%

More lines, main results first:

Row | inhibition at 15 µM (5-lipoxygenase [2]; read-out: % Inhibition 5-HETE) [%] | inhibition at 15 µM (5-lipoxygenase [2]; read-out: % Inhibition LTB) [%] | SMILES | inhibition [1] [%] | further results
12 | 0 | 0 | COc1cc(OC)c2c(c1)C(C)(C)C(c1ccc(OC)c(OC)c1)CC2N (stereo not drawn) | 0 | –
13 | 31 | – | COc1cc(OC)c2c(c1)C(C)(C)C(c1ccc(OC)c(OC)c1)C(C)C2=NO (stereo not drawn) | – | inhibition at 10 µM [1]: 13%
14 | 54 | – | COc1cc(OC)c2c(c1)C(C)(C)C(c1ccc(OC)c(OC)c1)CC(C)(C)C2=O (stereo not drawn) [drawing 90 [X=O; W=CH3; J=CH3]] | 25 | –
15 | 0 | 4 | COc1cc(OC)c2c(c1)C(C)(C)C(c1ccc(OC)c(OC)c1)CC2NC(C)=O (stereo not drawn) | 11 | –
